# Reference: patent US6358885B1, “Substituted phenylheterocyclic herbicides” (Mississippi State University, priority 1992, dated 2002)
# Key:
# Test in all cases: Test B preemergence/postemergence greenhouse plant response rating 0 to 10
# soybean = assay type: in vivo, Glycine max; conditions: for Plant response rating, Soybean: 0 to 10 scale
# How it was run: (§1)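 Planted seeds are treated preemergence with compound dissolved in a non-phytotoxic solvent, while postemergence applications go onto plants of two to eighteen cm. Plants stay in the greenhouse twelve to sixteen days and are then rated visually relative to controls.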
# cheatgrass = assay type: in vivo, Bromus secalinus; conditions: for Plant response rating, Cheatgrass: 0 to 10 scale
# How it was run: as §1
# cotton = assay type: in vivo, Gossypium hirsutum; conditions: for Plant response rating, Cotton: 0 to 10 scale
# How it was run: as §1
# bedstraw = assay type: in vivo, Galium aparine; conditions: for Plant response rating, Bedstraw: 0 to 10 scale
# How it was run: as §1
# lambsquarters = assay type: in vivo, Chenopodium album; conditions: for Plant response rating, Lambsquarter: 0 to 10 scale
# How it was run: as §1
# blackgrass = assay type: in vivo, Alopecurus myosuroides; conditions: for Plant response rating, Blackgrass: 0 to 10 scale
# How it was run: as §1
# barley = assay type: in vivo, Hordeum vulgare; conditions: for Plant response rating, Barley: 0 to 10 scale
# How it was run: as §1
# sugar beet = assay type: in vivo, Beta vulgaris; conditions: for Plant response rating, Sugar beet: 0 to 10 scale
# How it was run: as §1
# morningglory = assay type: in vivo, Ipomoea hederacea; conditions: for Plant response rating, Morningglory: 0 to 10 scale
# How it was run: as §1
# crabgrass = assay type: in vivo, Digitaria spp.; conditions: for Plant response rating, Crabgrass: 0 to 10 scale
# How it was run: as §1
# purple nutsedge = assay type: in vivo, Cyperus rotundus; conditions: for Plant response rating, Nutsedge: 0 to 10 scale
# How it was run: as §1
# rice = assay type: in vivo, Oryza sativa; conditions: for Plant response rating, Rice: 0 to 10 scale
# How it was run: as §1
# velvetleaf = assay type: in vivo, Abutilon theophrasti; conditions: for Plant response rating, Velvetleaf: 0 to 10 scale
# How it was run: as §1
# cocklebur = assay type: in vivo, Xanthium pensylvanicum; conditions: for Plant response rating, Cocklebur: 0 to 10 scale
# How it was run: as §1
# giant foxtail = assay type: in vivo, Setaria faberii; conditions: for Plant response rating, Giant foxtail: 0 to 10 scale
# How it was run: as §1
# wild oat = assay type: in vivo, Avena fatua; conditions: for Plant response rating, Wild oat: 0 to 10 scale
# How it was run: as §1
# corn = assay type: in vivo, Zea mays; conditions: for Plant response rating, Corn: 0 to 10 scale
# How it was run: as §1
# chickweed = assay type: in vivo, Stellaria media; conditions: for Plant response rating, Chickweed: 0 to 10 scale
# How it was run: as §1
# barnyardgrass = assay type: in vivo, Echinochloa crus-galli; conditions: for Plant response rating, Barnyardgrass: 0 to 10 scale
# How it was run: as §1
# wild buckwheat = assay type: in vivo, Polygonum convolvulus; conditions: for Plant response rating, Wild buckwheat: 0 to 10 scale
# How it was run: as §1
# rape = assay type: in vivo, Brassica napus; conditions: for Plant response rating, Rape: 0 to 10 scale
# How it was run: as §1
# sorghum = assay type: in vivo, Sorghum bicolor; conditions: for Plant response rating, Sorghum: 0 to 10 scale
# How it was run: as §1
# wheat = assay type: in vivo, Triticum aestivum; conditions: for Plant response rating, Wheat: 0 to 10 scale
# How it was run: as §1
smiles,measurement,setting,value
CON=C(C)c1cc(-c2nn3c(c2Cl)CCCC3)c(F)cc1Cl [Compound 82],"Plant response rating, Soybean","soybean; POSTEMERGENCE, Rate 50 g/ha",4
same,"Plant response rating, Soybean","soybean; PREEMERGENCE, Rate 50 g/ha",0
same,"Plant response rating (0 to 10 scale), Soybean","soybean; PREEMERGENCE, Rate 200 g/ha",6
same,"Plant response rating, Soybean","soybean; Rate 200 g/ha, POSTEMERGENCE",6
same,"Plant response rating, Cheatgrass","cheatgrass; POSTEMERGENCE, Rate 50 g/ha",2
same,"Plant response rating, Cheatgrass","cheatgrass; PREEMERGENCE, Rate 50 g/ha",2
same,"Plant response rating (0 to 10 scale), Cheatgrass","cheatgrass; PREEMERGENCE, Rate 200 g/ha",6
same,"Plant response rating, Cheatgrass","cheatgrass; Rate 200 g/ha, POSTEMERGENCE",3
same,"Plant response rating, Cotton","cotton; POSTEMERGENCE, Rate 50 g/ha",10
same,"Plant response rating, Cotton","cotton; PREEMERGENCE, Rate 50 g/ha",0
same,"Plant response rating (0 to 10 scale), Cotton","cotton; PREEMERGENCE, Rate 200 g/ha",1
same,"Plant response rating, Cotton","cotton; Rate 200 g/ha, POSTEMERGENCE",10
same,"Plant response rating, Bedstraw","bedstraw; POSTEMERGENCE, Rate 50 g/ha",8
same,"Plant response rating, Bedstraw","bedstraw; PREEMERGENCE, Rate 50 g/ha",0
same,"Plant response rating (0 to 10 scale), Bedstraw","bedstraw; PREEMERGENCE, Rate 200 g/ha",9
same,"Plant response rating, Bedstraw","bedstraw; Rate 200 g/ha, POSTEMERGENCE",9
same,"Plant response rating, Lambsquarter","lambsquarters; POSTEMERGENCE, Rate 50 g/ha",7
same,"Plant response rating, Lambsquarter","lambsquarters; PREEMERGENCE, Rate 50 g/ha",10
same,"Plant response rating (0 to 10 scale), Lambsquarter","lambsquarters; PREEMERGENCE, Rate 200 g/ha",10
same,"Plant response rating, Lambsquarter","lambsquarters; Rate 200 g/ha, POSTEMERGENCE",9
same,"Plant response rating, Blackgrass","blackgrass; POSTEMERGENCE, Rate 50 g/ha",2
same,"Plant response rating, Blackgrass","blackgrass; PREEMERGENCE, Rate 50 g/ha",0
same,"Plant response rating (0 to 10 scale), Blackgrass","blackgrass; PREEMERGENCE, Rate 200 g/ha",4
same,"Plant response rating, Blackgrass","blackgrass; Rate 200 g/ha, POSTEMERGENCE",3
same,"Plant response rating, Barley","barley; POSTEMERGENCE, Rate 50 g/ha",2
same,"Plant response rating, Barley","barley; PREEMERGENCE, Rate 50 g/ha",0
same,"Plant response rating (0 to 10 scale), Barley","barley; PREEMERGENCE, Rate 200 g/ha",0
same,"Plant response rating, Barley","barley; Rate 200 g/ha, POSTEMERGENCE",3
same,"Plant response rating, Sugar beet","sugar beet; POSTEMERGENCE, Rate 50 g/ha",10
same,"Plant response rating, Sugar beet","sugar beet; PREEMERGENCE, Rate 50 g/ha",8
same,"Plant response rating (0 to 10 scale), Sugar beet","sugar beet; PREEMERGENCE, Rate 200 g/ha",10
same,"Plant response rating, Sugar beet","sugar beet; Rate 200 g/ha, POSTEMERGENCE",10
same,"Plant response rating, Morningglory","morningglory; POSTEMERGENCE, Rate 50 g/ha",10
same,"Plant response rating, Morningglory","morningglory; PREEMERGENCE, Rate 50 g/ha",0
same,"Plant response rating (0 to 10 scale), Morningglory","morningglory; PREEMERGENCE, Rate 200 g/ha",2
same,"Plant response rating, Morningglory","morningglory; Rate 200 g/ha, POSTEMERGENCE",10
same,"Plant response rating, Crabgrass","crabgrass; POSTEMERGENCE, Rate 50 g/ha",3
same,"Plant response rating, Crabgrass","crabgrass; PREEMERGENCE, Rate 50 g/ha",3
same,"Plant response rating (0 to 10 scale), Crabgrass","crabgrass; PREEMERGENCE, Rate 200 g/ha",7
same,"Plant response rating, Crabgrass","crabgrass; Rate 200 g/ha, POSTEMERGENCE",4
same,"Plant response rating, Nutsedge","purple nutsedge; POSTEMERGENCE, Rate 50 g/ha",2
same,"Plant response rating, Nutsedge","purple nutsedge; PREEMERGENCE, Rate 50 g/ha",0
same,"Plant response rating (0 to 10 scale), Nutsedge","purple nutsedge; PREEMERGENCE, Rate 200 g/ha",0
same,"Plant response rating, Nutsedge","purple nutsedge; Rate 200 g/ha, POSTEMERGENCE",2
same,"Plant response rating, Rice","rice; POSTEMERGENCE, Rate 50 g/ha",4
same,"Plant response rating, Rice","rice; PREEMERGENCE, Rate 50 g/ha",0
same,"Plant response rating (0 to 10 scale), Rice","rice; PREEMERGENCE, Rate 200 g/ha",2
same,"Plant response rating, Rice","rice; Rate 200 g/ha, POSTEMERGENCE",6
same,"Plant response rating, Velvetleaf","velvetleaf; POSTEMERGENCE, Rate 50 g/ha",10
same,"Plant response rating, Velvetleaf","velvetleaf; PREEMERGENCE, Rate 50 g/ha",0
same,"Plant response rating (0 to 10 scale), Velvetleaf","velvetleaf; PREEMERGENCE, Rate 200 g/ha",10
same,"Plant response rating, Velvetleaf","velvetleaf; Rate 200 g/ha, POSTEMERGENCE",10
same,"Plant response rating, Cocklebur","cocklebur; POSTEMERGENCE, Rate 50 g/ha",7
same,"Plant response rating, Cocklebur","cocklebur; PREEMERGENCE, Rate 50 g/ha",0
same,"Plant response rating (0 to 10 scale), Cocklebur","cocklebur; PREEMERGENCE, Rate 200 g/ha",0
same,"Plant response rating, Cocklebur","cocklebur; Rate 200 g/ha, POSTEMERGENCE",8
same,"Plant response rating, Giant foxtail","giant foxtail; POSTEMERGENCE, Rate 50 g/ha",4
same,"Plant response rating, Giant foxtail","giant foxtail; PREEMERGENCE, Rate 50 g/ha",3
same,"Plant response rating (0 to 10 scale), Giant foxtail","giant foxtail; PREEMERGENCE, Rate 200 g/ha",6
same,"Plant response rating, Giant foxtail","giant foxtail; Rate 200 g/ha, POSTEMERGENCE",5
same,"Plant response rating, Wild oat","wild oat; POSTEMERGENCE, Rate 50 g/ha",2
same,"Plant response rating, Wild oat","wild oat; PREEMERGENCE, Rate 50 g/ha",2
same,"Plant response rating (0 to 10 scale), Wild oat","wild oat; PREEMERGENCE, Rate 200 g/ha",7
same,"Plant response rating, Wild oat","wild oat; Rate 200 g/ha, POSTEMERGENCE",4
same,"Plant response rating, Corn","corn; POSTEMERGENCE, Rate 50 g/ha",3
same,"Plant response rating, Corn","corn; PREEMERGENCE, Rate 50 g/ha",0
same,"Plant response rating (0 to 10 scale), Corn","corn; PREEMERGENCE, Rate 200 g/ha",3
same,"Plant response rating, Corn","corn; Rate 200 g/ha, POSTEMERGENCE",4
same,"Plant response rating, Chickweed","chickweed; POSTEMERGENCE, Rate 50 g/ha",2
same,"Plant response rating, Chickweed","chickweed; PREEMERGENCE, Rate 50 g/ha",6
same,"Plant response rating (0 to 10 scale), Chickweed","chickweed; PREEMERGENCE, Rate 200 g/ha",0
same,"Plant response rating, Chickweed","chickweed; Rate 200 g/ha, POSTEMERGENCE",3
same,"Plant response rating, Barnyardgrass","barnyardgrass; POSTEMERGENCE, Rate 50 g/ha",6
same,"Plant response rating, Barnyardgrass","barnyardgrass; PREEMERGENCE, Rate 50 g/ha",2
same,"Plant response rating (0 to 10 scale), Barnyardgrass","barnyardgrass; PREEMERGENCE, Rate 200 g/ha",6
same,"Plant response rating, Barnyardgrass","barnyardgrass; Rate 200 g/ha, POSTEMERGENCE",7
same,"Plant response rating, Wild buckwheat","wild buckwheat; POSTEMERGENCE, Rate 50 g/ha",10
same,"Plant response rating, Wild buckwheat","wild buckwheat; PREEMERGENCE, Rate 50 g/ha",7
same,"Plant response rating (0 to 10 scale), Wild buckwheat","wild buckwheat; PREEMERGENCE, Rate 200 g/ha",9
same,"Plant response rating, Wild buckwheat","wild buckwheat; Rate 200 g/ha, POSTEMERGENCE",10
same,"Plant response rating, Rape","rape; POSTEMERGENCE, Rate 50 g/ha",5
same,"Plant response rating, Rape","rape; PREEMERGENCE, Rate 50 g/ha",0
same,"Plant response rating (0 to 10 scale), Rape","rape; PREEMERGENCE, Rate 200 g/ha",6
same,"Plant response rating, Rape","rape; Rate 200 g/ha, POSTEMERGENCE",7
same,"Plant response rating, Sorghum","sorghum; POSTEMERGENCE, Rate 50 g/ha",2
same,"Plant response rating, Sorghum","sorghum; PREEMERGENCE, Rate 50 g/ha",0
same,"Plant response rating (0 to 10 scale), Sorghum","sorghum; PREEMERGENCE, Rate 200 g/ha",2
same,"Plant response rating, Sorghum","sorghum; Rate 200 g/ha, POSTEMERGENCE",4
same,"Plant response rating, Wheat","wheat; POSTEMERGENCE, Rate 50 g/ha",3
same,"Plant response rating, Wheat","wheat; PREEMERGENCE, Rate 50 g/ha",0
same,"Plant response rating (0 to 10 scale), Wheat","wheat; PREEMERGENCE, Rate 200 g/ha",2
same,"Plant response rating, Wheat","wheat; Rate 200 g/ha, POSTEMERGENCE",4
